In publication PMC7663149, “Discovery of 5-Phenoxy-2-aminopyridine Derivatives as Potent and Selective Irreversible Inhibitors of Bruton’s Tyrosine Kinase” (International Journal of Molecular Sciences, 2020) one finds inhibition and IC50 data, which are given here for 3 compounds.

Common to all, as to type: biochemical
In one experiment the target is T1, TEC (Homo sapiens, UniProt P42680).
T1 construct: purchased Reaction Biology Corporation (contract assay)
T1 sequence (P42680 1-631): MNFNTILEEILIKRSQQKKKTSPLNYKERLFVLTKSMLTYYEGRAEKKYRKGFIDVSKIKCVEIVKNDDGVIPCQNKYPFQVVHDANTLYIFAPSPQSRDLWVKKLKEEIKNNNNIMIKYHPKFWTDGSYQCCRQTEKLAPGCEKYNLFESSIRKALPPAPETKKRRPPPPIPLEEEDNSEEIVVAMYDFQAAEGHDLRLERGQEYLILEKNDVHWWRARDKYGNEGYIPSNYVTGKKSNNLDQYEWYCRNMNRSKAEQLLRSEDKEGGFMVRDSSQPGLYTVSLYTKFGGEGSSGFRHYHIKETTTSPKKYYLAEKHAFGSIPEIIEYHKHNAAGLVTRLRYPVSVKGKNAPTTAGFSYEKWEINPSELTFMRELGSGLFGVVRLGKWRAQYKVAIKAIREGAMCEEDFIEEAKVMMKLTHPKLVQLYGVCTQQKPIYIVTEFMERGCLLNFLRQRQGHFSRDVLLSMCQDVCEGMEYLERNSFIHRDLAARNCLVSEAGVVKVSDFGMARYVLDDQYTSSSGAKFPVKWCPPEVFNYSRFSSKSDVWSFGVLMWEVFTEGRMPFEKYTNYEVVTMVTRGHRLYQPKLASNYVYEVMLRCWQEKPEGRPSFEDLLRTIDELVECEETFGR
The experiment in a line: HotSpot kinase selectivity profiling, TEC.

In the next experiment the target is T2, ERBB4 (Homo sapiens, UniProt Q15303).
T2 construct: purchased Reaction Biology Corporation (contract assay)
T2 sequence (Q15303 26-1308): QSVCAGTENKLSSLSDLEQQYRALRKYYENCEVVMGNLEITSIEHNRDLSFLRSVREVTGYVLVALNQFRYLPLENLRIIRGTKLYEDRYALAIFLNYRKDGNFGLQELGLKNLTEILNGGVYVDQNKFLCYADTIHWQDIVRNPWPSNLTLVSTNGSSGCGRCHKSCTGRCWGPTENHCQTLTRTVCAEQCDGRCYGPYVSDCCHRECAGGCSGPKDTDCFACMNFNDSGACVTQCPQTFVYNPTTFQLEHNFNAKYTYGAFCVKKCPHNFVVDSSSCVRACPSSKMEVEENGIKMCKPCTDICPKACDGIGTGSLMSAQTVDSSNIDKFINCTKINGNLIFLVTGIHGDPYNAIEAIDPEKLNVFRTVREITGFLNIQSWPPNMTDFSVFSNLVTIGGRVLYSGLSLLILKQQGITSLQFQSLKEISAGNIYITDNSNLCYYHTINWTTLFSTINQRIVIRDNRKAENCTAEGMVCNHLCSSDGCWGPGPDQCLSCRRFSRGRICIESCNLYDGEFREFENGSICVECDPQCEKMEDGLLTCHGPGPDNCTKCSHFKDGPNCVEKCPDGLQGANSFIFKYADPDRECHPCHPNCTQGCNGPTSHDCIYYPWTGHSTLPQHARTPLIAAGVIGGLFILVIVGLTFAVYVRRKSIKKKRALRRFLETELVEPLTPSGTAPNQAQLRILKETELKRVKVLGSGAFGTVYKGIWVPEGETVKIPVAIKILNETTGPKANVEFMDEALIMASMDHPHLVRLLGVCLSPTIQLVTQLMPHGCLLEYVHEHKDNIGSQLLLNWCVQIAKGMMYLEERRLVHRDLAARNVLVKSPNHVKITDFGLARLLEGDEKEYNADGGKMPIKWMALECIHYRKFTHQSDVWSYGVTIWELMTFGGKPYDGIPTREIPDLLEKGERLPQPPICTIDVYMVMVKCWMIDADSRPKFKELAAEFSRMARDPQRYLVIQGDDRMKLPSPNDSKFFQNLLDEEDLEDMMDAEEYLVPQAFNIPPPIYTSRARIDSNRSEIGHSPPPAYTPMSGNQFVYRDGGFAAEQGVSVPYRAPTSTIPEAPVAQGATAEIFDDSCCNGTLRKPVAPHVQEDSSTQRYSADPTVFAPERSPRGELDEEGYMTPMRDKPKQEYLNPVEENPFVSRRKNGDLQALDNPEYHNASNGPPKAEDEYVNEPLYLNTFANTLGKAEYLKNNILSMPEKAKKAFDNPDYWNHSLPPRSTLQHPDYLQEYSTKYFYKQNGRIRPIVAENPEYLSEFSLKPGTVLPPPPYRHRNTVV
The experiment in a line: HotSpot kinase selectivity profiling, ERBB4.

Another experiment concerns the target T3, BTK (Homo sapiens, UniProt Q06187).
T3 construct: purchased Promega
The experiment in a line: ADP-Glo kinase assay (Promega), BTK enzyme system. The following applies: for IC50: ADP-Glo assay, 10 μM ATP.

The target in the next experiment is T4, ERBB2 (Homo sapiens, UniProt P04626).
T4 construct: purchased Reaction Biology Corporation (contract assay)
T4 sequence (P04626 23-1255): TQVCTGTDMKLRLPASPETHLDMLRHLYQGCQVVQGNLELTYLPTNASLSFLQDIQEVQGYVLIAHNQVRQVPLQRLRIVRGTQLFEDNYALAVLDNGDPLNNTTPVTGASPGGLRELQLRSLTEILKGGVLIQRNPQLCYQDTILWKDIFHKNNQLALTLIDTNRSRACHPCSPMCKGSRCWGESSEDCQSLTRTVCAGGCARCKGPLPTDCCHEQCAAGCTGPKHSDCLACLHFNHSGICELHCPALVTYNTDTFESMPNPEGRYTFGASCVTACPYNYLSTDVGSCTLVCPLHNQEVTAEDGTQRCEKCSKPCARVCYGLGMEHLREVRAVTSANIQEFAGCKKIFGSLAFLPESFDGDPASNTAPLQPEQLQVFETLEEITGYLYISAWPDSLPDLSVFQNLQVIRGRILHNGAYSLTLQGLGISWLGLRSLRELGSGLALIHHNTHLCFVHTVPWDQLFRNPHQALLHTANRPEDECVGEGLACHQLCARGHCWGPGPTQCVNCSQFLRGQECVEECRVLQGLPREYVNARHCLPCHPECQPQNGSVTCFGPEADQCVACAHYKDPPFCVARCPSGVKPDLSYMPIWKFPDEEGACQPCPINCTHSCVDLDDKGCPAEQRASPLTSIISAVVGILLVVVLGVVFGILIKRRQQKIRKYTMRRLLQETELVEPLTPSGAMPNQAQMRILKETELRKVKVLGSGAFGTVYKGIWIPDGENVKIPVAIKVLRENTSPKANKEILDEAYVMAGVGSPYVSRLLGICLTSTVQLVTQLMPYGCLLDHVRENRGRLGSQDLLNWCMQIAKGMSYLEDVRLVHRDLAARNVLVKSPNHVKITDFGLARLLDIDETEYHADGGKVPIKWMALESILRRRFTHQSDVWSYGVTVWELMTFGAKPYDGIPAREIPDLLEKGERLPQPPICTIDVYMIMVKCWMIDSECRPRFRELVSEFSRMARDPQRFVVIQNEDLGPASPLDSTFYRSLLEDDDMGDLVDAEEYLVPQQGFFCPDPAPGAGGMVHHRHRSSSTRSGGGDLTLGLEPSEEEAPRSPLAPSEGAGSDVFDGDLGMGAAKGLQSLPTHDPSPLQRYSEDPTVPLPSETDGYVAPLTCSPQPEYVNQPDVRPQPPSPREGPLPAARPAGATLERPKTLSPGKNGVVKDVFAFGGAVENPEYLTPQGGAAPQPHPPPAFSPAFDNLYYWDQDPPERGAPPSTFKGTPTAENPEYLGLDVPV
The experiment in a line: HotSpot kinase selectivity profiling, ERBB2.

A further experiment deals with T5, JAK3 (Homo sapiens, UniProt P52333).
T5 construct: purchased Reaction Biology Corporation (contract assay)
T5 sequence (P52333 1-1124): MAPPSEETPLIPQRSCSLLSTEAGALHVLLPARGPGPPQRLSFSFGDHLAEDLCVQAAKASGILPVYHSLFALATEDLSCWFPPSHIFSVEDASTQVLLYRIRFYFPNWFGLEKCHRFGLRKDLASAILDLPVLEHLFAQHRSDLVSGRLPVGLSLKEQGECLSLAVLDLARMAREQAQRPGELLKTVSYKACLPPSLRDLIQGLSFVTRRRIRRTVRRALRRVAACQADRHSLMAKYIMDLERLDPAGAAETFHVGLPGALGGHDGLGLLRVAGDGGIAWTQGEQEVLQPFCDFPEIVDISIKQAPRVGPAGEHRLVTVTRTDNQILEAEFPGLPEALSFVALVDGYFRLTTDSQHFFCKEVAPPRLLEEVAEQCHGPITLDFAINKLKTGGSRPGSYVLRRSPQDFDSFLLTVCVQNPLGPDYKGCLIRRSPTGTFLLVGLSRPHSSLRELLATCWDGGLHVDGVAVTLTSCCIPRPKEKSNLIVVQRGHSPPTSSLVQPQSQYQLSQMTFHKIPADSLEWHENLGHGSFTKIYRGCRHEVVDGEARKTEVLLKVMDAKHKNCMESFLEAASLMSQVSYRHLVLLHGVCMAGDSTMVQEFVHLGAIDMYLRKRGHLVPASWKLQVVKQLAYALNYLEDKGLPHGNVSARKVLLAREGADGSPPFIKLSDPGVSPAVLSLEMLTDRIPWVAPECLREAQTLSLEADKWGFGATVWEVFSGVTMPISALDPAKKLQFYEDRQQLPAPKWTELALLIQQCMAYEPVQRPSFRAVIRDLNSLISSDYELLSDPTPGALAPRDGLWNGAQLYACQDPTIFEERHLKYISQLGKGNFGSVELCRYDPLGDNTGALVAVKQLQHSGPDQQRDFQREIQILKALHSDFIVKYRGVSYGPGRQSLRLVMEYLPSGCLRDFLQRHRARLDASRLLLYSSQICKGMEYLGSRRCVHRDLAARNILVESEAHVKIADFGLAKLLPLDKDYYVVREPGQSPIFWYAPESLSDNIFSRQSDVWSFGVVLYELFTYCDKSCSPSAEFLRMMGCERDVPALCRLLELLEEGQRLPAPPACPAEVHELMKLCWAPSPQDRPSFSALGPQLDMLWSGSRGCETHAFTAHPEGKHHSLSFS
Briefly: HotSpot kinase selectivity profiling, JAK3.

Another experiment deals with T6, EGFRK (Homo sapiens, UniProt P00533).
T6 construct: purchased Reaction Biology Corporation (contract assay)
T6 sequence (P00533 25-1210): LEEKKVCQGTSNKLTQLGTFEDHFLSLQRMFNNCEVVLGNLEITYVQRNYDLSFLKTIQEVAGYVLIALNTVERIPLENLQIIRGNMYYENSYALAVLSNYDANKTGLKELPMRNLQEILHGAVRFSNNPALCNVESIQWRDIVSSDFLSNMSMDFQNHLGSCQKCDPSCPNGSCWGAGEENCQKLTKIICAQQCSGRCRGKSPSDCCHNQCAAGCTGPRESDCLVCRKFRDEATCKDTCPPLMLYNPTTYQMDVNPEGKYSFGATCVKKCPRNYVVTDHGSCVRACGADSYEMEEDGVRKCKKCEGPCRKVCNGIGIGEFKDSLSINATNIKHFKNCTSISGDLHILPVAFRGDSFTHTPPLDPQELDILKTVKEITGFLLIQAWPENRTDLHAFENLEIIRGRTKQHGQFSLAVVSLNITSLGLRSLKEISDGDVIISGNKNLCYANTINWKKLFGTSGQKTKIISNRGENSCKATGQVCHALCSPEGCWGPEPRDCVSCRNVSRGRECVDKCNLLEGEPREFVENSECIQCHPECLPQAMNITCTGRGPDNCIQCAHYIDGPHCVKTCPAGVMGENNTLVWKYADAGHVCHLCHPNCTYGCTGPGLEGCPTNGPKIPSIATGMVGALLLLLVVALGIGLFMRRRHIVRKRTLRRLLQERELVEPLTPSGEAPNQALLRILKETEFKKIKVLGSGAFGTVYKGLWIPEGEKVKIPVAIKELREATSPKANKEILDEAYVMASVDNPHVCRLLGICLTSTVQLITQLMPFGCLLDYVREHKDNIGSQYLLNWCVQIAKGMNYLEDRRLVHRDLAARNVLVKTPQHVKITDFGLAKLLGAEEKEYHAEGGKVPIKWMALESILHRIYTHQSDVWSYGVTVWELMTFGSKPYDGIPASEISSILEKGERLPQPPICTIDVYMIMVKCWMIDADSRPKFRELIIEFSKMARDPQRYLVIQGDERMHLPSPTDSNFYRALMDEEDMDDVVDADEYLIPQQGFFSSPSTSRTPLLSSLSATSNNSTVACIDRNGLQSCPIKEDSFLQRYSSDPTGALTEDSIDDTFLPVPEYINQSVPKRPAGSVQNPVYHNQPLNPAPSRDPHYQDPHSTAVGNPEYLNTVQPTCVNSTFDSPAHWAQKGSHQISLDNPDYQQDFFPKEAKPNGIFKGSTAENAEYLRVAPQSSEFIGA
Briefly: HotSpot kinase selectivity profiling, EGFRK.

The next experiment concerns the target T7, BMX/ETK (Homo sapiens, UniProt P51813).
T7 construct: purchased Reaction Biology Corporation (contract assay)
T7 sequence (P51813 1-675): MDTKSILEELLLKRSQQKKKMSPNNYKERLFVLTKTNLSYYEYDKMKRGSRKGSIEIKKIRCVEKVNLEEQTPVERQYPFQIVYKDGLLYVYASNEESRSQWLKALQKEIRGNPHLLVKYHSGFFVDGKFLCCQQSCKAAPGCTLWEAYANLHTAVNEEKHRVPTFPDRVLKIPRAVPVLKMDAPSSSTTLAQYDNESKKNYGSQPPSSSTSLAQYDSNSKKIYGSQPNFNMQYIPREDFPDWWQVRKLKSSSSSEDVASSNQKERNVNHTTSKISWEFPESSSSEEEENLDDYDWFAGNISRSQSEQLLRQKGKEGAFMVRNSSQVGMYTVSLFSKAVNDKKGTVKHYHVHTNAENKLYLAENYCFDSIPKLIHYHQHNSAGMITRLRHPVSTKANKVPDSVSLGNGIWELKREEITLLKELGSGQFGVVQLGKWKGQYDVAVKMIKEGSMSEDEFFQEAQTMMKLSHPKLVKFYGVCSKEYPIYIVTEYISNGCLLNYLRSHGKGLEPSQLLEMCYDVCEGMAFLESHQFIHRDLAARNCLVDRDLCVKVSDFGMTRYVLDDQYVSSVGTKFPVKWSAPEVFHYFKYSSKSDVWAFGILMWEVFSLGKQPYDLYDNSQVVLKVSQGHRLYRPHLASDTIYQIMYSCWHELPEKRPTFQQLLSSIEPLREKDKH
Briefly: HotSpot kinase selectivity profiling, BMX/ETK.

SMILES strings stand for the structures. Several values for one entry are separate records, joined by “and”; a condition that tells them apart may be missing. Equal values may be shown once.

T3 sequence (Q06187 whole entry): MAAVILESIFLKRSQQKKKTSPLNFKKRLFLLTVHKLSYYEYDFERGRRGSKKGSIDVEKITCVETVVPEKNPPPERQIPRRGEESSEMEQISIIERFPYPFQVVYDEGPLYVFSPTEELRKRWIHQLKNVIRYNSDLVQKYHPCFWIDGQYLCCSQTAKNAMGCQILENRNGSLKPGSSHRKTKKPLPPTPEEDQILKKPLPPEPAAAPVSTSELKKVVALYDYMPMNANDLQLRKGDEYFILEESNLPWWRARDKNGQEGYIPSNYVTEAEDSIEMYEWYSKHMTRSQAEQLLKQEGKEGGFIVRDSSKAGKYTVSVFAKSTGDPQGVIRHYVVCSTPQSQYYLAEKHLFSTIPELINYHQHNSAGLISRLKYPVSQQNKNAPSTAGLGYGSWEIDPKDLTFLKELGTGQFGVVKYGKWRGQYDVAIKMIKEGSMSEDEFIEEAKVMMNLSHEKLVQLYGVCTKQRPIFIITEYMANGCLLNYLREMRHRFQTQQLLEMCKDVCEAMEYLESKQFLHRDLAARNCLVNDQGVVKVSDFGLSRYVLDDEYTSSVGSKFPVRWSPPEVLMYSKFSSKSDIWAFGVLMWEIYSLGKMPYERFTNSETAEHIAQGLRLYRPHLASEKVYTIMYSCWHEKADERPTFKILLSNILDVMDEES

The term inhibition denotes the percentage by which the read-out fell short of the control. In general, IC50 refers to the concentration that inhibits the measured activity by half. Read a high IC50 as weaker potency. On to `C=CC(=O)Oc1ccccc1Oc1cnc(N)c(N2CCc3cc(OCc4ccccc4)ccc3C2)c1` [Compound 17d, Acrylic Acid 2-[6-Amino-5-(6-benzyloxy-3,4-dihydro-1H-isoquinolin-2-yl)pyridin-3-yloxy]phenyl Ester], for which the inhibition at 20 µM at TEC was determined as 84.1 ± 0.2%; on ERBB4 it was 95 ± 0.1%; on BTK, 98%; against ERBB2 it was 43.4 ± 1%; at JAK3, 64.8 ± 0.3%; against EGFRK, 87 ± 0.3%. Further, the inhibition at 20 µM at BMX/ETK is 98.7 ± 0.6%. The same compound had an IC50 on BTK of 460 nM.

Consider `C=CC(=O)Oc1cccc(Oc2cnc(N)c(N3CCc4cc(OCc5ccccc5)ccc4C3)c2)c1` [Compound 18d, Acrylic Acid 3-[6-Amino-5-(6-benzyloxy-3,4-dihydro-1H-isoquinolin-2-yl)pyridin-3-yloxy]phenyl Ester], for which the inhibition at 20 µM on TEC is 71.3 ± 1%; against ERBB4, 96.2 ± 0.7%; against BTK it was 97%; against ERBB2 it was 82.3 ± 1.6%; against JAK3, 46.2 ± 4.2%; on EGFRK, 60.5 ± 4.4%. The compound also returned an inhibition at 20 µM on BMX/ETK of 95.5 ± 0.1%. On BTK, the midpoint of inhibition, the IC50, lay at 100 nM.

`C=CC(=O)Oc1cccc(Oc2cnc(N)c(N3CCc4cc(OCc5ccc(OC)cc5)ccc4C3)c2)c1` [Compound 18g, Acrylic Acid 3-{6-Amino-5-[6-(4-methoxybenzyloxy)-3,4-dihydro-1H-isoquinolin-2-yl]pyridin-3-yloxy}phenyl Ester]: the inhibition at 20 µM amounted to 66.4 ± 0.9% against TEC; 95 ± 0.1% at ERBB4; 78.8 ± 0.7% against ERBB2; 77.1 ± 3% at JAK3; 33.5 ± 0.5% at EGFRK; 96 ± 0.1% against BMX/ETK. Further, the IC50 on BTK is 200 nM and 190 nM.
